Source: patent US8501752B2, “Methods for treating cancer and other pathological proliferating disorders by inhibiting mitosis using pyrrolo[2,3-d]pyrimidines” (Duquesne University of the Holy Ghost, priority 2005, dated 2013)
“Also recorded” adds a separate entry of the source. Like-named read-outs stand apart in the source and are kept apart here.

Assays:
[1] = system: NCI/ADR cells; experiment: Cytotoxicity, NCI/ADR cells that overexpress P-glycoprotein; details: for Resistance (NCI/ADR relative to MCF-7): P-glycoprotein
Description: (§2) These cell lines are resistant to anticancer drugs due to overexpression of the transport proteins P-glycoprotein or MRP1.

[2] = system: MCF-7 cells; experiment: Cytotoxicity, drug-sensitive MCF-7 cells
Description: as §2

[3] = system: MCF-7/VP cells; experiment: Cytotoxicity, MCF-7/VP cells that overexpress MRP1; details: for Resistance (MCF-7/VP relative to MCF-7): MRP1
Description: as §2

[4] = system: T24, MCF-7, NCI/ADR, MCF-7/VP; experiment: Cytotoxicity, panel of human tumor cell lines of Table 3 (text summaries)
Description: as §2

[5] = system: T24 human bladder carcinoma cells; experiment: Cytotoxicity, T24 cells; assay type: cell-based; details: for IC50: mean ± SEM for 3 experiments
[6] = system: NCI 60 human tumor cell lines; experiment: NCI IVCLSP growth inhibition, whole panel (text summaries); assay type: cell-based; details: NCI 60 tumor panel
Description: FIG. 1 presents nine compounds that were tested using the National Cancer Institute (NCI) 60 human tumor cell lines. The cells lines, which represent leukemia, melanoma, and cancers of the lung, colon, brain, ovary, breast, prostate, and kidney, are listed in Table 1.
Compounds 1-9 were tested according to the NCI Developmental Therapeutics Program (DTP) In Vitro Cell Line Screening Project (IVCLSP). […] Methodology for testing under the IVCLSP is as follows: The human tumor cell lines of the cancer screening panel are grown in RPMI 1640 medium containing 5% fetal bovine serum and 2 mM L-glutamine. For a typical screening experiment, cells are inoculated into 96 well microtiter plates in 100 μL at plating densities ranging from 5,000 to 40,000 cells/well depending on the doubling time of individual cell lines. After cell inoculation, the microtiter plates are incubated at 37° C., 5% CO2, 95% air and 100% relative humidity for 24 h prior to addition of experimental drugs.
After 24 h, two plates of each cell line are fixed in situ with TCA, to represent a measurement of the cell population for each cell line at the time of drug addition (Tz). Experimental drugs are solubilized in dimethyl sulfoxide at 400-fold the desired final maximum test concentration and stored frozen prior to use. At the time of drug addition, an aliquot of frozen concentrate is thawed and diluted to twice the desired final maximum test concentration with complete medium containing 50 μg/ml gentamicin. Additional four, 10-fold or ½ log serial dilutions are made to provide a total of five drug concentrations plus control. Aliquots of 100 μl of these different drug dilutions are added to the appropriate microtiter wells already containing 100 μl of medium, resulting in the required final drug concentrations.
Following drug addition, the plates are incubated for an additional 48 h at 37° C., 5% CO2, 95% air, and 100% relative humidity. For adherent cells, the assay is terminated by the addition of cold TCA. Cells are fixed in situ by the gentle addition of 50 μl of cold 50% (w/v) TCA (final concentration, 10% TCA) and incubated for 60 minutes at 4° C. The supernatant is discarded, and the plates are washed five times with tap water and air dried. Sulforhodamine B (SRB) solution (100 μl) at 0.4% (w/v) in 1% acetic acid is added to each well, and plates are incubated for 10 minutes at room temperature. After staining, unbound dye is removed by washing five times with 1% acetic acid and the plates are air dried. Bound stain is subsequently solubilized with 10 mM trizma base, and the absorbance is read on an automated plate reader at a wavelength of 515 nm. For suspension cells, the methodology is the same except that the assay is terminated by fixing settled cells at the bottom of the wells by gently adding 50 μl of 80% TCA (final concentration, 16% TCA). Using the seven absorbance measurements [time zero, (Tz), control growth, (C), and test growth in the presence of drug at the five concentration levels (Ti)], the percentage growth is calculated at each of the drug concentrations levels. Percentage growth inhibition is calculated as: [(Ti−Tz)/(C−Tz)]×100 for concentrations for which Ti>/=Tz [(Ti−Tz)/Tz]×100 for concentrations for which Ti<Tz.
Three dose response parameters are calculated for each experimental agent. […] The drug concentration resulting in total growth inhibition (TGI) is calculated from Ti=Tz. […]

[7] = molecular target: T1, P-glycoprotein (Homo sapiens, UniProt P08183); experiment: P-glycoprotein antagonism: sensitivity of NCI/ADR cells to vinblastine; assay type: cell-based; details: for effect on P-glycoprotein-mediated resistance (in words): absence or presence of 50 nM vinblastine
T1 construct: NCI/ADR cells that overexpress P-glycoprotein; endogenous in cells; host or cells: NCI/ADR cells
T1 sequence (P08183 whole entry): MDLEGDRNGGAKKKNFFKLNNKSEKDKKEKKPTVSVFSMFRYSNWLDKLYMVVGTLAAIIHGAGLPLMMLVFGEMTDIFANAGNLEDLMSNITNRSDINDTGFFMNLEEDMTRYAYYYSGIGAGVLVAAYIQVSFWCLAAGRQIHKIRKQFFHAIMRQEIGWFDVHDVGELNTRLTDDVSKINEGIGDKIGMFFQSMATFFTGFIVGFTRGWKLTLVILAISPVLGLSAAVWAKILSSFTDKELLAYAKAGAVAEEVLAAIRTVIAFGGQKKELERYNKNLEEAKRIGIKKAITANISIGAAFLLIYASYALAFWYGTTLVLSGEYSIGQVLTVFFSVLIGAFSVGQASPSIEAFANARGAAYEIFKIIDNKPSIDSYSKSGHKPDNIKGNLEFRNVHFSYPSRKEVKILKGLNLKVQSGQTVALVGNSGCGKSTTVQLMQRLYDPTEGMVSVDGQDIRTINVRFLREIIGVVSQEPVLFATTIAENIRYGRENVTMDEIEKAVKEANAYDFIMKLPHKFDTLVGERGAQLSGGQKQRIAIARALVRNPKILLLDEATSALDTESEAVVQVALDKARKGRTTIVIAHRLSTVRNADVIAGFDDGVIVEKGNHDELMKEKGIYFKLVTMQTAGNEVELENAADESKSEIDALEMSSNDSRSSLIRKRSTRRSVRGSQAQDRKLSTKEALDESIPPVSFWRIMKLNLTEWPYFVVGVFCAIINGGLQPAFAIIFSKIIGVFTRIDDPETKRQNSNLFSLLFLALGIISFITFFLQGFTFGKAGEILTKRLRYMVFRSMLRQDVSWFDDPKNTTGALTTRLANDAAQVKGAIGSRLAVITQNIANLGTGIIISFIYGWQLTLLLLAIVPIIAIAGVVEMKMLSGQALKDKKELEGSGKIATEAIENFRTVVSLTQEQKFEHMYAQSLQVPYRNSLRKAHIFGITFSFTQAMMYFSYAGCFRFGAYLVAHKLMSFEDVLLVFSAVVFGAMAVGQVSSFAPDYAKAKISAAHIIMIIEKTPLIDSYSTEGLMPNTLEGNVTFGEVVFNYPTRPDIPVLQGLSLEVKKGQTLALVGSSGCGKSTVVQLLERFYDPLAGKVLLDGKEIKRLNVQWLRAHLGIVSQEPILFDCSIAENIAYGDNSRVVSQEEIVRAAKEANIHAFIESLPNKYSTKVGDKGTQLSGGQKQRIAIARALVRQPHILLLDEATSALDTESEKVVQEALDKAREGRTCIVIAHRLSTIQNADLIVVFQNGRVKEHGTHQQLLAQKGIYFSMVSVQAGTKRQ
Description: To determine if this is due to inhibition of drug transport activity by these proteins, the effects of these compounds on P-glycoprotein were further characterized. The effects of the compounds on the sensitivity of NCI/ADR cells to vinblastine and of MCF-7/VP cells to vincristine were examined to evaluate antagonism of P-glycoprotein and MRP1, respectively. FIGS. 4a-b present graphs of antagonism score versus concentration for P-glycoprotein and MRP1, respectively.
The Pgp antagonism score is calculated as the percentage survival of cells in the absence of vinblastine/percentage survival in the presence of vinblastine. […] The MRP1 antagonism score is calculated as the percentage survival of cells in the absence of vincristine/percentage survival in the presence of vincristine. […] Concentrations of Compounds 1-5 above their IC50 toward MCF-7 cells are not indicated. Data for one of three similar experiments is shown.

[8] = system: HL-60 human promyelocytic leukemia cells; experiment: Flow cytometric cell cycle phase distribution; assay type: cell-based; details: 24 hours treatment; for increase of the percentage of cells in the G2/M phases: HL-60; for cell cycle distribution, G2/M / cell cycle distribution, G9/G1 / cell cycle distribution, S: percentage of HL-60 cells
Description: Flow cytometric analyses were used to assess the effects of Compound 1 and various antimicrotubule drugs on the cell cycle phase distributions of HL-60 human promyelocytic leukemia cells. The percentage of cells in the G2/M phases were increased approximately 2-fold by treatment of the cells for 24 hours with either TAXOL (paclitaxel), vinblastine, colchicine, or Compound 1.

[9] = system: A-10 rat smooth muscle cells; experiment: Microtubule structure, indirect immunofluorescence, A-10 cells; assay type: cell-based; details: 24 hours; 625 nM TAXOL, 167 nM vinblastine, 900 nM Compound 1
Description: Because of the morphological effects of Compound 1 on cultured cells and the NCI COMPARE analysis results described above, the effects of vinblastine, TAXOL (paclitaxel), and Compound 1 on microtubule structure were examined. For these studies, A-10 rat smooth muscle cells were used since they grow as flat monolayers that are amenable to imaging. The A-10 cells were treated for 24 hours with EtOH (control), 625 nM TAXOL (paclitaxel), 167 nM vinblastine, and 900 nM of Compound 1. Microtubules were then visualized by indirect immunofluoresence staining with B-tubulin antibodies. FIGS. 2a-d present representative fields for the control, TAXOL (paclitaxel), vinblastine, and Compound 1 (“149”), respectively. None of these compounds affected the morphology of stress fibers composed of microfilaments.

[10] = system: p53; experiment: Western blot, p53 expression in MCF-7 cells; assay type: cell-based, human; details: 24 hours, various concentrations
Description: (§1) To further characterize the cell cycle effects of Compound 1 on human tumor cells, MCF-7 cells were treated for 24 hours with various concentrations of Compound 1, vinblastine, or TAXOL (paclitaxel). Cells were then harvested, lysed, and analyzed for levels of expression of p53 and WAF1 by Western Blot analyses. […] Compound 1 is identified as “149” in these figures. […] None of these treatments affected the expression of bcl-2 or P-tubulin in the MCF-7 cells.

[11] = system: WAF1; experiment: Western blot, WAF1 expression in MCF-7 cells; assay type: cell-based, human; details: 24 hours, various concentrations
Description: as §1

[12] = Homo sapiens, NCI/ADR-RES, read-out: drug sensitivity (IC50), NCI/ADR
[13] = Homo sapiens, MCF7, read-out: drug sensitivity (IC50), MCF-7
[14] = Homo sapiens, MCF7-VP, read-out: drug sensitivity (IC50), MCF-7/VP
[15] = read-out: Cytotoxicity IC50, NCI/ADR, mean ± SEM for 3 experiments
[16] = read-out: Cytotoxicity IC50, MCF-7, mean ± SEM for 3 experiments
[17] = read-out: Cytotoxicity IC50, MCF-7/VP, mean ± SEM for 3 experiments

SMILES: CC[C@]1(O)C[C@H]2CN(CCc3c([nH]c4ccccc34)[C@@](C(=O)OC)(c3cc4c(cc3OC)N(C=O)[C@H]3[C@@](O)(C(=O)OC)[C@H](OC(C)=O)[C@]5(CC)C=CCN6CC[C@]43[C@@H]65)C2)C1 [Vincristine, vincristine, reference compound]
- IC50 [1, 12]: 0.1 µM
- Resistance (NCI/ADR relative to MCF-7) [1]: 167
- IC50 [2, 13]: 0.0006 ± 0.0001 µM
- IC50 [3, 14]: 0.0093 ± 0.0014 µM
- Resistance (MCF-7/VP relative to MCF-7) [3]: 15.5
- effect of P-glycoprotein / MRP1 overexpression on cell sensitivity (in words) [4]: overexpression of MRP1 also confers substantial resistance

SMILES: N.N.[Cl][Pt][Cl] [Cisplatin, cisplatin, reference compound]
- Resistance (NCI/ADR relative to MCF-7) [1]: 1.1
- IC50 ([1]; read-out: drug sensitivity (IC50), NCI/ADR, Table 4, P-glycoprotein overexpressing, mean ± SEM for 3 experiments): 12.2 ± 4.2 µM
- IC50 ([2]; read-out: drug sensitivity (IC50), MCF-7, Table 4, mean ± SEM for 3 experiments): 11.5 ± 4.1 µM
- Resistance (MCF-7/VP relative to MCF-7) [3]: 0.6
- IC50 ([3]; read-out: drug sensitivity (IC50), MCF-7/VP, Table 4, MRP1 overexpressing, mean ± SEM for 3 experiments): 7 ± 2.9 µM
- effect of P-glycoprotein / MRP1 overexpression on cell sensitivity (in words) [4]: insensitive to transporter expression

SMILES: COc1ccccc1CCc1cn(Cc2ccccc2)c2nc(N)nc(C)c12 [Compound 4]
- IC50 [5]: 2.5 ± 0.3 µM
- IC50 [1, 15]: 2.7 ± 0.4 µM
- GI50 values, level across the tumor cell lines (in words) [6]: micromolar to millimolar range
- more potent than the others in reversing P-glycoprotein-mediated resistance ([7]; 50 nM vinblastine): approximately 10 fold
- effect on P-glycoprotein-mediated resistance (in words) [7]: dose-dependent sensitization
- effect on P-glycoprotein-mediated resistance (in words) ([7]; listed as 2-OMe analog): effective at reversing P-glycoprotein mediated resistance
- IC50 [2, 16]: 2.3 ± 0.6 µM
- IC50 [3, 17]: 2.6 ± 0.1 µM
- cytotoxic potency, better than the 3- or 4-OMe [4]: about 10 times
- cytotoxic potency, better than the unsubstituted phenyl analog Compound 5 [4]: ~5 times
- effect of P-glycoprotein / MRP1 overexpression on cell sensitivity (in words) [4]: eliminated any resistance due to overexpression of either P-glycoprotein or MRP1
- less potent as an antimitotic agent than the 3,4,5-triOMe analog [4]: about 10 times
- cytotoxic potency (in words) ([4]; all tested cell lines): substantially increased the potency toward all of the tested cell lines

SMILES: Cc1nc(N)nc2c1c(CCc1ccccc1)cn2Cc1ccccc1 [Compound 5]
- IC50 [5]: 12.7 ± 2.3 µM
- IC50 [1, 15]: 18.2 ± 7.4 µM
- GI50 values, level across the tumor cell lines (in words) [6]: millimolar or less range for 52 of the tumor cell lines; also recorded: micromolar GI50 values for three of the tumor cell lines
- effect on P-glycoprotein-mediated resistance (in words) [7]: dose-dependent sensitization
- IC50 [2, 16]: 10.7 ± 4.7 µM
- IC50 [3, 17]: 118 ± 6 µM

SMILES: CC(=O)O[C@H]1C(=O)[C@@]2(C)[C@H]([C@H](OC(=O)c3ccccc3)[C@]3(O)C[C@H](OC(=O)[C@H](O)[C@@H](NC(=O)c4ccccc4)c4ccccc4)C(C)=C1C3(C)C)[C@]1(OC(C)=O)CO[C@@H]1C[C@@H]2O [TAXOL (paclitaxel), paclitaxel]
- increase of the percentage of cells in the G2/M phases [8]: approximately 2 fold
- cell cycle distribution, G2/M [8]: 10.5 ± 0.1
- cell cycle distribution, G9/G1 [8]: 67.3 ± 0.4
- cell cycle distribution, S [8]: 22.2 ± 0.4
- effect on microtubule structure (in words) [9]: promoted increased staining of microtubule clusters
- IC50 [1, 12]: 2.7 ± 0.5 µM
- Resistance (NCI/ADR relative to MCF-7) [1]: 1080
- level of expression of p53 (in words) [10]: marked increases
- level of expression of WAF1 (in words) [11]: marked increases
- IC50 [2, 13]: 0.0025 ± 0.0006 µM
- IC50 [3, 14]: 0.0028 ± 0.0006 µM
- Resistance (MCF-7/VP relative to MCF-7) [3]: 1.1

SMILES: COc1ccc(CCc2cn(Cc3ccccc3)c3nc(N)nc(C)c23)cc1 [Compound 2]
- change of cytotoxic potency by substitution (in words) ([5]; T24, relative to unsubstituted Compound 5): decreased the cytotoxic potency
- IC50 [5]: 31.7 ± 1.7 µM
- IC50 [1, 15]: 21.7 ± 4.4 µM
- effect on P-glycoprotein-mediated resistance (in words) [7]: dose-dependent sensitization
- IC50 [2, 16]: 13 ± 3.5 µM
- IC50 [3, 17]: 22.7 ± 3.7 µM

SMILES: COc1cc2c(c(OC)c1OC)-c1ccc(OC)c(=O)cc1[C@@H](NC(C)=O)CC2 [Colchicine, colchicine]
- increase of the percentage of cells in the G2/M phases [8]: approximately 2 fold
- cell cycle distribution, G2/M [8]: 11.9 ± 0.3
- cell cycle distribution, G9/G1 [8]: 84.1 ± 0.7
- cell cycle distribution, S [8]: 4.0 ± 1.4

SMILES: CC[C@]1(O)C[C@@H]2CN(CCc3c([nH]c4ccccc34)[C@@](C(=O)OC)(c3cc4c(cc3OC)N(C)[C@H]3[C@@](O)(C(=O)OC)[C@H](OC(C)=O)[C@]5(CC)C=CCN6CC[C@]43[C@@H]65)C2)C1 [Vinblastine, vinblastine]
- increase of the percentage of cells in the G2/M phases [8]: approximately 2 fold
- cell cycle distribution, G2/M [8]: 10.1 ± 0.3
- cell cycle distribution, G9/G1 [8]: 83.3 ± 1.3
- cell cycle distribution, S [8]: 6.6 ± 1.6
- effect on microtubule structure (in words) [9]: caused marked depletion of cellular microtubules
- IC50 [1, 12]: > 0.375 µM
- Resistance (NCI/ADR relative to MCF-7) [1]: >134
- level of expression of p53 (in words) [10]: marked increases
- level of expression of WAF1 (in words) [11]: marked increases
- IC50 [2, 13]: 0.0028 ± 0.0005 µM
- IC50 [3, 14]: 0.003 ± 0.0006 µM
- Resistance (MCF-7/VP relative to MCF-7) [3]: 1.1
